{"source": "patent US8815844B2", "about": "“Mitochondrial activity inhibitors of cancer-initiating cells and use thereof” (Universite de Geneve, priority 2009, dated 2014)", "key": {"[1]": {"test_system": "FL1^+ cells (glioma-initiating cells, gliomasphere cultures)", "experiment": "in vitro recurrence assay (treatment then recovery), viable FL1+ cells by FACS", "assay_type": "cell-based, human", "settings": "for rating as anti-CSC agent: in vitro recurrence assay criteria; for number of viable FL1^+ cells: temsirolimus (1 μM elsewhere in the source), 5 μM cyclopamine, 5 μM DAPT; for killing of FL1^+ cells: 5 μM, exposure along 20 days; for killing of FL1^+ cell population by inhibition of mitochondrial complex: FIG. 6, 5 μM", "excerpt": "In contrast to other methods, which preferentially use cancer cell lines and stem cell marker like CD133 as a read-out of stemness, the Applicants' technology relies on primary cell cultures derived from human specimen and on a simple and unbiased detection of CICs independently of the use of any marker. Thus Applicants took advantage of such methodology to design and develop an in vitro recurrence assay to screen and validate potential therapeutic agents for eradicating cancer stem cells in glioma. […] The novelties here reside on the read-out of stemness used for testing the efficiency of any drug and on the possibility to identify specific anti-CSC agent.\nBasically, any agent or inhibitor would be considered as an efficient anti-CSC agent if it fulfils the following criteria:\n• 1) a viability of GICs (FL1^+ cells) decreases for more than 50% during the exposure to said agent or inhibitor during a maximum of 20 days, • 2) a recovery of GICs (FL1^+ cells) is less than 0.2 fold during the recovery phase of a maximum of 20 days, and • 3) the viability of normal brain cells is sustainable and recoverable during and after the exposure to the said agent or inhibitor.\na) Providing a cancer stem cell sample;\nb) Treating the cancer stem cell sample provided under (a) with an agent;\nc) Incubating the treated stem cell sample in a stem cell culture medium for an incubation period without treatment;\nd) Selecting the viable cell population from the stem cell sample incubated under step (c); […]"}, "[2]": {"test_system": "primary glioma cells (FBS cultures)", "method": "To test the specificity of such inhibitor towards CICs, normal brains cells and primary glioma cells (FBS cultures) were exposed to the above mentioned mitochondrial agents for 10 days.\nFor short term/dose response (48 hrs): Dissociated gliomasphere cells, adherent glioma and normal cells were plated at 10 cell/μl in DMEM-F12 Glutamax, BIT20% or B27 (1/50), Hepes 30 mM, Penicillin/streptomycin 1/1000, with reduced mitogens at 1 ng/ml or with reduced level of serum (2.5%).\nFor long term treatment/recovery assay (T10 and/or T20): Dissociated gliomasphere cells, adherent glioma and normal cells were plated at 2 cell/μl in DMEM-F12 Glutamax, Hepes 30 mM, BIT20% or B27 (1/50), Penicillin/streptomycin 1/1000, with reduced mitogens at 1 ng/ml or with reduced level of serum (2.5%).\nFor the recovery, cells were harvested, washed with PBS1x, and placed back into their standard media."}, "primary GBM-2 cells": {"test_system": "primary GBM-2 cells", "experiment": "in vivo tumorigenicity of cells pretreated in vitro with inhibitors", "parameters": "species or system mice", "settings": "GBM-2 cells treated 10 days in vitro prior implantation; for histological analyses for tumours: 17 weeks post-implantation; for state of mice implanted with pretreated cells: up to 17 weeks post-implantation", "excerpt": "Control mice had symptoms 4 weeks post-implantation and were sacrificed. […] Experiment was stopped 17 weeks post-implantation."}, "FL1^+ cells": {"test_system": "FL1^+ cells", "experiment": "effect of exogenous lactate addition on FL1+ cells", "assay_type": "cell-based, human", "settings": "exogeneous lactate along 10 days", "experimental": "A: Levels of metabolite (LAC: lactate, PYR: pyruvate, GLUC: glucose) for FL1^+ and FL1^0 cells; B & C: Effect of lactate addition (LAC) on FL1^+ cell morphology by phase contrast imaging (B) and on the percentage of FL1^0 cells (C). Non treated (NT); Scale bar: […]. D: Level of active Lactate Deshydrogenase (LD expressed in UI/L) in purified-FL1^+ and -FL1^0 cells."}}}
{"compound": "CCCCCC[C@H]1C(=O)O[C@H](C)[C@H](NC(=O)c2cccc(NC=O)c2O)C(=O)O[C@@H](C)[C@@H]1OC(=O)CC(C)C", "note": "[Antimycin A]", "values": [{"measurement": "effect on normal brain cells", "setting": "normal brain cells; FIG. 6", "value": "does not really affect the viability of normal brain cells"}, {"measurement": "viability of normal brain cells", "setting": "normal brain cells; exposure for 10 days", "value": "allows normal brain cells to survive"}]}
{"compound": "C[C@H](NC(=O)Cc1cc(F)cc(F)c1)C(=O)N[C@H](C(=O)OC(C)(C)C)c1ccccc1", "note": "[DAPT, N—[N-(3,5-Difluorophenacetyl-L-alanyl)]-S-phenylglycine t-Butyl Ester]", "values": [{"measurement": "rating as anti-CSC agent", "setting": "[1]", "value": "inefficient"}, {"measurement": "number of viable FL1^+ cells", "setting": "[1]", "value": "decrease of the number of viable FL1^+ cells"}]}
{"compound": "Cn1nnc2c(C(N)=O)ncn2c1=O", "note": "[temozolomide, Temozolomide]", "values": [{"measurement": "viability at 25 µM", "setting": "[1]; Homo sapiens, 480 h, temozolomide 25 μM, up to 20 days treatment, read-out: FL1^+ cells still viable after treatment", "value": "> 30", "unit": "%"}]}
{"compound": "CO[C@H]1C[C@@H]2CC[C@@H](C)[C@@](O)(O2)C(=O)C(=O)N2CCCC[C@H]2C(=O)O[C@H]([C@H](C)C[C@@H]2CC[C@@H](OC(=O)C(C)(CO)CO)[C@H](OC)C2)CC(=O)[C@H](C)/C=C(\\C)[C@@H](O)[C@@H](OC)C(=O)[C@H](C)C[C@H](C)/C=C/C=C/C=C/1C", "note": "[temsirolimus, Temsirolimus]", "values": [{"measurement": "rating as anti-CSC agent", "setting": "[1]", "value": "inefficient"}, {"measurement": "number of viable FL1^+ cells", "setting": "[1]", "value": "decrease of the number of viable FL1^+ cells"}]}
{"compound": "Oligomycin A/B", "values": [{"measurement": "killing of FL1^+ cells", "setting": "[1]", "value": "kills all FL1^+ cell"}, {"measurement": "killing of FL1^+ cell population by inhibition of mitochondrial complex", "setting": "[1]", "value": "kills the FL1^+ cell population"}, {"measurement": "effect on glioma cells", "setting": "[2]; FIG. 6", "value": "eradicate any kind of brain cells including normal and glioma ones"}, {"measurement": "viability of primary glioma cells", "setting": "[2]; exposure for 10 days, FBS cultures", "value": "sensitive"}]}
{"compound": "C#Cc1cccc(Nc2ncnc3cc(OCCOC)c(OCCOC)cc23)c1", "note": "[Erlotinib]", "values": [{"measurement": "time in which gliomasphere cultures recover from the treatment", "setting": "[1]; all gliomasphere cultures, long term treatment, Erlotinib 5 μM", "value": "≤ 10", "unit": "days"}, {"measurement": "GBM in which cell death is induced in more than 50% of FL1^+ cells", "setting": "[1]; long term treatment, Erlotinib 5 μM", "value": "2/6"}]}
{"compound": "CC1=C2C[C@H]3[C@@H](CC=C4C[C@@H](O)CC[C@@]43C)[C@@H]2CC[C@]12O[C@@H]1C[C@H](C)CN[C@H]1[C@H]2C", "note": "[cyclopamine, Cyclopamine]", "values": [{"measurement": "rating as anti-CSC agent", "setting": "[1]", "value": "inefficient"}]}
{"compound": "CN(C)CCCN1c2ccccc2CCc2ccc(Cl)cc21", "note": "[Anafranil, Clomipramine]", "values": [{"measurement": "killing of FL1^+ cells", "setting": "[1]", "value": "kills all FL1^+ cell"}, {"measurement": "histological analyses for tumours", "setting": "primary GBM-2 cells", "value": "no visible tumours"}, {"measurement": "state of mice implanted with pretreated cells", "setting": "primary GBM-2 cells", "value": "alive without symptoms"}]}
{"compound": "C=C(C)[C@H]1Cc2c(ccc3c2O[C@@H]2COc4cc(OC)c(OC)cc4[C@@H]2C3=O)O1", "note": "[Rotenone]", "values": [{"measurement": "killing of FL1^+ cells", "setting": "[1]", "value": "kills all FL1^+ cell"}, {"measurement": "killing of FL1^+ cell population by inhibition of mitochondrial complex", "setting": "[1]", "value": "kills the FL1^+ cell population"}, {"measurement": "histological analyses for tumours", "setting": "primary GBM-2 cells", "value": "no visible tumours"}, {"measurement": "state of mice implanted with pretreated cells", "setting": "primary GBM-2 cells", "value": "alive without symptoms"}]}
{"compound": "CC(O)C(=O)O", "note": "(centres unmarked) [lactate]", "values": [{"measurement": "effect on FL1^+ cell morphology", "setting": "FL1^+ cells", "value": "induce cell adhesion"}, {"measurement": "effect on cell phenotype (FL1^0 cells)", "setting": "FL1^+ cells", "value": "commits cells towards the FL1^0 phenotype"}]}
